Measured values reported in ChEMBL document CHEMBL1909046, “DrugMatrix in vitro pharmacology data”.

Legend:
[1] = DRUGMATRIX: Sigma2 radioligand binding (ligand: [3H] Ifenprodil); format: cell membranes, Rattus norvegicus, Wistar, Brain, Membrane; details: Not Active = under 50% inhibition at 10 µM
[2] = target: T1, Polyunsaturated fatty acid lipoxygenase ALOX15 (Oryctolagus cuniculus, UniProt P12530); assay: biochemical; format: tissue-based, Reticulocytes; details: reticulocytes;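 also: inhibition of 15-lipoxygenase enzyme activity measured with linoleic acid as the substrate; in other assays of this panel Not Active means under 50% inhibition at 10 µM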
T1 sequence (P12530 whole entry): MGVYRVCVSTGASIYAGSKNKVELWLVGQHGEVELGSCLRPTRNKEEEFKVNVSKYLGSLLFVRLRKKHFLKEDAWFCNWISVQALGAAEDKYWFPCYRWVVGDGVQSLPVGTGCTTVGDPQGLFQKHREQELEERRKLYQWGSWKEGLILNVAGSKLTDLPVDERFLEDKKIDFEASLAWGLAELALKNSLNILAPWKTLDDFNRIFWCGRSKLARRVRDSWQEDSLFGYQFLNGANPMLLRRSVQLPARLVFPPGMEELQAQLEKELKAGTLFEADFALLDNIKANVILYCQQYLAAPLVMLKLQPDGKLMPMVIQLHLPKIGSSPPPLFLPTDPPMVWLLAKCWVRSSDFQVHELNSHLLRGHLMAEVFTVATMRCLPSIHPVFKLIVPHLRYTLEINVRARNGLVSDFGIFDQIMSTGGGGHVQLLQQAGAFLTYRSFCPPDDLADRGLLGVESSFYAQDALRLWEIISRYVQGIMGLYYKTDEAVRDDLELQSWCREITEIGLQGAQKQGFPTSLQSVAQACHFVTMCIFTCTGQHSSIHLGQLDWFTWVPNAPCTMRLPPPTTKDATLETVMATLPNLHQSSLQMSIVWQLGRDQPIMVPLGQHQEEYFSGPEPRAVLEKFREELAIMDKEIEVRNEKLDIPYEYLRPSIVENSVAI

[3] = DRUGMATRIX: Glutamate, NMDA, Phencyclidine radioligand binding (ligand: [3H] TCP); format: cell membranes, Rattus norvegicus, Wistar, Cerebral cortex, Membrane; details: Not Active = under 50% inhibition at 10 µM
Carbonic anhydrase 2 = Carbonic anhydrase 2 (Homo sapiens, UniProt P00918); assay: DRUGMATRIX: Carbonic Anhydrase II enzyme inhibition (substrate: 4-Nitrophenyl acetate (4-NPA)); format: tissue-based; details: erythrocyte; Not Active = under 50% inhibition at 10 µM
[4] = target: T2, Alpha-1B adrenergic receptor (Rattus norvegicus, UniProt P15823); assay: DRUGMATRIX: Alpha-1B adrenergic receptor radioligand binding (ligand: prazosin); format: cell membranes, Wistar, Liver, Membrane; details: Not Active = under 50% inhibition at 10 µM
T2 sequence (P15823 whole entry): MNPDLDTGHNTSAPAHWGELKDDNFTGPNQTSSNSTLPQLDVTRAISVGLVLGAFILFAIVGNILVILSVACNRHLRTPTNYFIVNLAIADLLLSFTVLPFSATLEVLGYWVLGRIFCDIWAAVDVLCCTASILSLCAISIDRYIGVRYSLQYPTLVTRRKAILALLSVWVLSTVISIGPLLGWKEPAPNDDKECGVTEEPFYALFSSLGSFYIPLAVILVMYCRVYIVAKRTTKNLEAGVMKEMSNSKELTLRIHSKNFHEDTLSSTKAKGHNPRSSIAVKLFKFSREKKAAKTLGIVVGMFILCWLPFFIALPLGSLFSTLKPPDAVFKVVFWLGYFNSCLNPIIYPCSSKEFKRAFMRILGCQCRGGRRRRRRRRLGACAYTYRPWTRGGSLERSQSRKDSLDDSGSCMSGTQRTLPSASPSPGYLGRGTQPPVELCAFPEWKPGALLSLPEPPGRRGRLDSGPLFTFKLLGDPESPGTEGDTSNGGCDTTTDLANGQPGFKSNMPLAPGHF

[5] = DRUGMATRIX: Phosphodiesterase PDE3 enzyme inhibition (substrate: [3H]cAMP + cAMP); format: tissue-based, Homo sapiens; details: platelet; Not Active = under 50% inhibition at 10 µM

| Molecule | IC50 [1] | Ki [1] | IC50 [2] | IC50 [3] | Ki [3] | IC50 (Carbonic anhydrase 2) | IC50 [4] | IC50 [5] | Ki [5] | IC50 ([4]; read-out: IC50) [nM] | Ki ([4]; read-out: Ki) [nM] | IC50 ([1]; read-out: IC50) [nM] | Ki ([1]; read-out: Ki) [nM] | Ki [2] | Ki (Carbonic anhydrase 2) | Ki [4] |
| --- | --- | --- | --- | --- | --- | --- | --- | --- | --- | --- | --- | --- | --- | --- | --- | --- |
| O.O.O.O.O.O.[Cl-].[Cl-].[Sr+2] [STRONTIUM CHLORIDE HEXAHYDRATE] | Not Active | Not Active | Not Active | Not Active | Not Active | Not Active | Not Active | Not Active | Not Active |  |  |  |  |  |  |  |
| O=C1C(CC[S+]([O-])c2ccccc2)C(=O)N(c2ccccc2)N1c1ccccc1 (configuration not stated) [SULFINPYRAZONE] | Not Active | Not Active | Not Active | Not Active | Not Active | Not Active | Not Active | Not Active | Not Active |  |  |  |  |  |  |  |
| NC(=O)N1C(=O)/C(=C(\O)c2cccs2)c2cc(Cl)ccc21 [TENIDAP] | Not Active | Not Active | Not Active | Not Active | Not Active | Not Active | Not Active | Not Active | Not Active |  |  |  |  |  |  |  |
| COc1cc2nc(N3CCN(C(=O)C4CCCO4)CC3)nc(N)c2cc1OC (configuration not stated) [TERAZOSIN] | Not Active | Not Active | Not Active | Not Active | Not Active | Not Active |  | Not Active | Not Active | 6.03 | 3.33 |  |  |  |  |  |
| CN(C/C=C/C#CC(C)(C)C)Cc1cccc2ccccc12 [TERBINAFINE] |  |  | Not Active | Not Active | Not Active | Not Active | Not Active | Not Active | Not Active |  |  | 35.4 | 21.8 |  |  |  |
| CCCCNc1ccc(C(=O)OCCN(C)C)cc1 [TETRACAINE] | Not Active | Not Active | Not Active | Not Active | Not Active | Not Active | Not Active | Not Active | Not Active |  |  |  |  |  |  |  |
| Cn1c(=O)c2nc[nH]c2n(C)c1=O.O [THEOPHYLLINE] | Not Active | Not Active | Not Active | Not Active | Not Active | Not Active | Not Active | Not Active | Not Active |  |  |  |  |  |  |  |
| CS(=O)(=O)c1ccc([C@@H](O)[C@@H](CO)NC(=O)C(Cl)Cl)cc1 [THIAMPHENICOL] | Not Active | Not Active | Not Active | Not Active | Not Active | Not Active | Not Active | Not Active | Not Active |  |  |  |  |  |  |  |
| CCN(CC)CCNC(=O)c1cc(S(C)(=O)=O)ccc1OC [TIAPRIDE] | Not Active | Not Active | Not Active | Not Active | Not Active | Not Active | Not Active | Not Active | Not Active |  |  |  |  |  |  |  |
| Clc1ccccc1CN1CCc2sccc2C1 [TICLOPIDINE] |  |  | Not Active | Not Active | Not Active | Not Active | Not Active | Not Active | Not Active |  |  | 3260 | 2010 |  |  |  |
| NC1CCN(c2nc3c(cc2F)c(=O)c(C(=O)O)cn3-c2ccc(F)cc2F)C1 (configuration not stated) [TOSUFLOXACIN] | Not Active | Not Active | Not Active | Not Active | Not Active | Not Active | Not Active | Not Active | Not Active |  |  |  |  |  |  |  |
| O=C(Nc1ccc(Br)cc1)c1cc(Br)cc(Br)c1O [TRIBROMSALAN] | Not Active | Not Active | Not Active | Not Active | Not Active | Not Active | Not Active | Not Active | Not Active |  |  |  |  |  |  |  |
| CC(c1cc2ccccc2s1)N(O)C(N)=O (configuration not stated) [ZILEUTON] | Not Active | Not Active | Not Active | Not Active | Not Active | Not Active | Not Active | Not Active | Not Active |  |  |  |  |  |  |  |
| MANGANESE CHLORIDE ANHYDROUS | Not Active | Not Active | Not Active | Not Active | Not Active | Not Active | Not Active | Not Active | Not Active |  |  |  |  | Not Active | Not Active | Not Active |
| SODIUM ORTHOVANAD | Not Active | Not Active | Not Active | Not Active | Not Active | Not Active | Not Active | Not Active | Not Active |  |  |  |  | Not Active | Not Active | Not Active |
